Tests used:
Assay type in all cases: cell-based
[1] = target: T1, wild-type Androgen Receptor (AR-wt) (Homo sapiens (Human), UniProt P10275); assay: LNCaP-AR-wt AG reporter assay (agonist mode); conditions: for Emax: read-out: LNCaP-AR-wt AG MAX % Stim; for EC50: read-out: LNCaP-AR-wt AG pEC50 (converted)
[2] = target: T1, wild-type Androgen Receptor (AR-wt); assay: LNCaP-AR-wt ANT reporter assay (antagonist mode); conditions: for Emax: read-out: LNCaP-AR-wt ANT MAX % Inh; for IC50: read-out: LNCaP-AR-wt ANT pIC50 (converted)
[3] = target: T2, F876L mutant Androgen Receptor (AR-F876L) (Homo sapiens (Human), UniProt P10275, F877L); assay: LNCaP-AR-F876L AG reporter assay (agonist mode); conditions: for Emax: read-out: LNCaP-AR-F876L AG MAX % Stim; for EC50: read-out: LNCaP-AR-F876L AG pEC50 (converted)
[4] = target: T2, F876L mutant Androgen Receptor (AR-F876L); assay: LNCaP-AR-F876L ANT reporter assay (antagonist mode); conditions: for Emax: read-out: LNCaP-AR-F876L ANT MAX % Inh; for IC50: read-out: LNCaP-AR-F876L ANT pIC50 (converted)
[5] = agonist mode, maximum % stimulation over tested concentration range
[6] = agonist mode, pEC50 = −Log10(EC50 in Molar)
[7] = antagonist mode, maximum % inhibition of R1881 control response over tested concentration range
[8] = antagonist mode, pIC50 = −Log10(IC50 in Molar)
[9] = maximum % stimulation (agonist response) over the tested concentration range
[10] = maximum % inhibition of R1881 control response over the tested concentration range

T1 sequence (P10275 whole entry): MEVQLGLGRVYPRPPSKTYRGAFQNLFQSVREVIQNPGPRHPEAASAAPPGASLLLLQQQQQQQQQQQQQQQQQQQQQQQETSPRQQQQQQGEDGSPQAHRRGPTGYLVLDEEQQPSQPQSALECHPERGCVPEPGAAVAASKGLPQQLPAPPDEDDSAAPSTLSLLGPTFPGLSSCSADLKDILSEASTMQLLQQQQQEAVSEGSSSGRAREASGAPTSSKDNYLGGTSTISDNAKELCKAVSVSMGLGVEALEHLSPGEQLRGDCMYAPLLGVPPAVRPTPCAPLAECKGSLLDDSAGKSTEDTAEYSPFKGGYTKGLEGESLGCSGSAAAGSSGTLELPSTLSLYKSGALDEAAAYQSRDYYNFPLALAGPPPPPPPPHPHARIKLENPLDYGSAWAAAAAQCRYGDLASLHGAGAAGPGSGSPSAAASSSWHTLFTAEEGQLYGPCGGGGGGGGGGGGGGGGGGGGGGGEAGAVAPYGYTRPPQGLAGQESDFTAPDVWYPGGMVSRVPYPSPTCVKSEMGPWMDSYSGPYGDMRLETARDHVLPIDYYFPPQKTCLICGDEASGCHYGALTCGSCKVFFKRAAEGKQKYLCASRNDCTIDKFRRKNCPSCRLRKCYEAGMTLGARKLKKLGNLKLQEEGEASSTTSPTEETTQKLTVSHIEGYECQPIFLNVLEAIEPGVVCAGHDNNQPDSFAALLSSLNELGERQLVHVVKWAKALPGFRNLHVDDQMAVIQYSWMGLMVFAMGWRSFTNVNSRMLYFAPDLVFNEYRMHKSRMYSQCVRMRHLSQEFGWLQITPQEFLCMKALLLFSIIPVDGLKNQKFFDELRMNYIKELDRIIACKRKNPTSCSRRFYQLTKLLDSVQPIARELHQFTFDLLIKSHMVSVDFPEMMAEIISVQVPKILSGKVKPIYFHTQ
T2 sequence (P10275 whole entry F877L): as the sequence (P10275 whole entry) above, with F877L counted along it

Compound | Emax [1, 5] | EC50 [1, 6] | Emax [2, 7] | IC50 [2, 8] | Emax [3, 5] | EC50 [3, 6] | Emax [4, 7] | IC50 [4, 8] | LNCaP-AR-wt AG pEC50 [1, 6] | LNCaP-AR-wt AG MAX % Stim [1, 9] | LNCaP-AR-wt ANT pIC50 [2, 8] | LNCaP-AR-wt ANT MAX % Inh [2, 10] | LNCaP-AR-F876L AG pEC50 [3, 6] | LNCaP-AR-F876L AG MAX % Stim [3, 9] | LNCaP-AR-F876L ANT pIC50 [4, 8] | LNCaP-AR-F876L ANT MAX % Inh [4, 10] | Emax [1, 9] | Emax [2, 10] | Emax [3, 9] | Emax [4, 10]
N#Cc1ncc(N2C(=O)C3(CCC3)N(c3ccc4[nH]c(CCO)nc4c3)C2=S)cc1C(F)(F)F | 0.4% | > 15100 nM | 0% | 1740 nM | 0.1% | > 15100 nM | 100% | 832 nM | – | – | – | – | – | – | – | – | – | – | – | –
3-chloro-5-[8-[1-(2-methoxyethyl)indazol-5-yl]-5-oxo-7-thioxo-6,8-diazaspiro[3.4]octan-6-yl]pyridine-2-carbonitrile [Cpd 171] | – | – | – | – | – | – | – | – | <4.82 | 0.2% | 6.45 | 101.3% | <4.82 | 0.1% | 6.80 | 100.8% | – | – | – | –
N#Cc1ncc(N2C(=O)C3(CCC3)N(c3ccc(OC4CCNCC4(F)F)cc3)C2=S)cc1C(F)(F)F (racemic) [Cpd 136, (R,S)-5-[8-[4-[(3,3-difluoro-4-piperidyl)oxy]phenyl]-5-oxo-7-thioxo-6,8-diazaspiro[3.4]octan-6-yl]-3-(trifluoromethyl)pyridine-2-carbonitrile] | – | > 15100 nM | – | 132 nM | – | > 15100 nM | – | 126 nM | – | – | – | – | – | – | – | – | -0.1% | 105% | 0.3% | 102%
CN1CCC(Oc2ccc(N3C(=S)N(c4cnc(C#N)c(C(F)(F)F)c4)C(=O)C34CCC4)cc2)C(F)(F)C1 (racemic) [Cpd 137, (R,S)-5-[8-[4-[(3,3-difluoro-1-methyl-4-piperidyl)oxy]phenyl]-5-oxo-7-thioxo-6,8-diazaspiro[3.4]octan-6-yl]-3-(trifluoromethyl)pyridine-2-carbonitrile] | – | > 15100 nM | – | 49 nM | – | > 15100 nM | – | 83.2 nM | – | – | – | – | – | – | – | – | 0.3% | 102% | 0.9% | 98.7%
N#Cc1ncc(N2C(=O)C3(CCC3)N(c3ccc(OC4CCNC5(CCC5)C4)cc3)C2=S)cc1C(F)(F)F (racemic) [Cpd 151, (R,S)-5-[8-[4-(9-azaspiro[3.5]nonan-6-yloxy)phenyl]-5-oxo-7-thioxo-6,8-diazaspiro[3.4]octan-6-yl]-3-(trifluoromethyl)pyridine-2-carbonitrile] | – | > 15100 nM | – | 234 nM | – | > 15100 nM | – | 145 nM | – | – | – | – | – | – | – | – | 0% | 106% | -0.1% | 104%
CN1CC[C@@H](Oc2ccc(N3C(=S)N(c4cnc(C#N)c(C(F)(F)F)c4)C(=O)C34CCC4)cc2)C[C@H]1C(F)(F)F (racemic) [Cpd 158, 5-[8-[4-[[(2SR, 4RS)-1-methyl-2-(trifluoromethyl)-4-piperidyl]oxy]phenyl]-5-oxo-7-thioxo-6,8-diazaspiro[3.4]octan-6-yl]-3-(trifluoromethyl)pyridine-2-carbonitrile] | – | > 15100 nM | – | 316 nM | – | > 15100 nM | – | 427 nM | – | – | – | – | – | – | – | – | 0.3% | 100% | 2.3% | 95.6%
CN1CCC(Oc2ccc(N3C(=S)N(c4cnc(C#N)c(C(F)(F)F)c4)C(=O)C34CCC4)cc2)CC12CCC2 (racemic) [Cpd 178, (R,S)-5-[8-[4-[(9-methyl-9-azaspiro[3.5]nonan-6-yl)oxy]phenyl]-5-oxo-7-thioxo-6,8-diazaspiro[3.4]octan-6-yl]-3-(trifluoromethyl)pyridine-2-carbonitrile] | – | > 15100 nM | – | 174 nM | – | > 15100 nM | – | 234 nM | – | – | – | – | – | – | – | – | 0.3% | 104% | 0% | 102%
N#Cc1ncc(N2C(=O)C3(CCC3)N(c3ccc(OC4CCNC5(CCC5)C4)nc3)C2=S)cc1C(F)(F)F (racemic) [Cpd 188, (R,S)-5-[8-[6-(9-azaspiro[3.5]nonan-6-yloxy)-3-pyridyl]-5-oxo-7-thioxo-6,8-diazaspiro[3.4]octan-6-yl]-3-(trifluoromethyl)pyridine-2-carbonitrile] | -0.2% | > 15100 nM | 104% | 219 nM | 0.3% | > 15100 nM | 104% | 170 nM | – | – | – | – | – | – | – | – | – | – | – | –
CN1CCC(Oc2ccc(N3C(=S)N(c4cnc(C#N)c(C(F)(F)F)c4)C(=O)C34CCC4)cn2)CC12CCC2 (racemic) [Cpd 194, (R,S)-5-[8-[6-[(9-methyl-9-azaspiro[3.5]nonan-6-yl)oxy]-3-pyridyl]-5-oxo-7-thioxo-6,8-diazaspiro[3.4]octan-6-yl]-3-(trifluoromethyl)pyridine-2-carbonitrile] | -0.3% | > 15100 nM | 103% | 155 nM | 0.4% | > 15100 nM | 103% | 186 nM | – | – | – | – | – | – | – | – | – | – | – | –
N#Cc1ncc(N2C(=O)C3(CCC3)N(c3ccc(O[C@@H]4CCN[C@H](CO)C4)cc3)C2=S)cc1C(F)(F)F (racemic) [Cpd 223, 5-[8-(2SR,4RS)[4-[[2-(hydroxymethyl)-4-piperidyl]oxy]phenyl]-5-oxo-7-thioxo-6,8-diazaspiro[3.4]octan-6-yl]-3-(trifluoromethyl)pyridine-2-carbonitrile] | 0.5% | > 15100 nM | 101% | 372 nM | 0.4% | > 15100 nM | 100% | 229 nM | – | – | – | – | – | – | – | – | – | – | – | –
CN1CC[C@@H](Oc2ccc(N3C(=S)N(c4cnc(C#N)c(C(F)(F)F)c4)C(=O)C34CCC4)cc2)C[C@H]1CO (racemic) [Cpd 226, 5-[8-(2SR,4RS)[4-[[2-(hydroxymethyl)-1-methyl-4-piperidyl]oxy]phenyl]-5-oxo-7-thioxo-6,8-diazaspiro[3.4]octan-6-yl]-3-(trifluoromethyl)pyridine-2-carbonitrile] | 0.4% | > 15100 nM | 101% | 60.3 nM | 0.2% | > 15100 nM | 100% | 36.3 nM | – | – | – | – | – | – | – | – | – | – | – | –
Cc1cc(N2C(=O)C3(CCC3)N(c3ccc(-c4cn[nH]c4)cc3)C2=S)cnc1C#N [Cpd 3, 3-methyl-5-[5-oxo-8-[4-(1H-pyrazol-4-yl)phenyl]-7-thioxo-6,8-diazaspiro[3.4]octan-6-yl]pyridine-2-carbonitrile] | – | > 15100 nM | – | 407 nM | – | > 15100 nM | – | 324 nM | – | – | – | – | – | – | – | – | 2.2% | 97.8% | 1.8% | 98.9%
COc1cc(N2C(=S)N(c3cnc(C#N)c(C)c3)C(=O)C23CCC3)ccc1-c1ccc(C)o1 [Cpd 5, 5-{8-[3-methoxy-4-(5-methyl(2-furyl))phenyl]-5-oxo-7-thioxo-6,8-diazaspiro[3.4]oct-6-yl}-3-methylpyridine-2-carbonitrile] | – | > 15100 nM | – | 676 nM | – | > 15100 nM | – | 661 nM | – | – | – | – | – | – | – | – | 1.2% | 98.8% | 3.3% | 90.3%
COCc1ccc(-c2ccc(N3C(=S)N(c4cnc(C#N)c(C)c4)C(=O)C34CCC4)cc2)o1 [Cpd 6, 5-(8-{4-[5-(methoxymethyl)(2-furyl)]phenyl}-5-oxo-7-thioxo-6,8-diazaspiro[3.4]oct-6-yl)-3-methylpyridine-2-carbonitrile] | – | > 15100 nM | – | 295 nM | – | > 15100 nM | – | 191 nM | – | – | – | – | – | – | – | – | 0.3% | 99.7% | 0.9% | 98.1%
Cc1cc(N2C(=O)C3(CCC3)N(c3ccc(-c4cnn(C(N)=O)c4)cc3)C2=S)cnc1C#N [Cpd 7, 4-{4-[7-(6-cyano-5-methyl(3-pyridyl))-8-oxo-6-thioxo-5,7-diazaspiro[3.4]oct-5-yl]phenyl}pyrazolecarboxamide] | – | > 15100 nM | – | 288 nM | – | > 15100 nM | – | 135 nM | – | – | – | – | – | – | – | – | 0.3% | 99.1% | 2.8% | 98.2%
CNC(=O)Cc1ccc(N2C(=S)N(c3cnc(C#N)c(C)c3)C(=O)C23CCC3)cc1 [Cpd 8, 2-{4-[7-(6-cyano-5-methyl(3-pyridyl))-8-oxo-6-thioxo-5,7-diazaspiro[3.4]oct-5-yl]phenyl}-N-methylacetamide] | – | > 15100 nM | – | 1170 nM | – | > 15100 nM | – | 1150 nM | – | – | – | – | – | – | – | – | 0.4% | 86.6% | -0.1% | 96%
COc1cc(N2C(=O)C3(CCC3)N(c3ccc(CN4CCNCC4)cc3)C2=S)cnc1C#N [Cpd 229, 3-methoxy-5-[5-oxo-8-[4-(piperazin-1-ylmethyl)phenyl]-7-thioxo-6,8-diazaspiro[3.4]octan-6-yl]pyridine-2-carbonitrile] | 0% | > 15100 nM | – | – | 0% | > 15100 nM | 101% | 129 nM | – | – | – | – | – | – | – | – | – | – | – | –
